Reference: ChEMBL document CHEMBL1201862, “PubChem BioAssay data set” (2004)
Activity calls are given as the source filed them.

Legend:
[1] = Luminescence Cell-Based Dose Retest to Confirm Inhibitors of Cancer Stem Cells. [Related pubchem assays (depositor defined):AID2717, AID2721]; format: functional; settings: Homo sapiens
Melanocortin receptor 4 = Melanocortin receptor 4 (Homo sapiens, UniProt P32245); format: functional, cell-based;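 also: Cell-based assay with luminescence read-out, confirmatory dose-response testing for agonist activity of biased ligands at MC4R; human U2OS cells with tagged receptor and beta-arrestin; potency of agonists that increase receptor coupling to beta-arrestin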
Chain of Melanocortin receptor 4 (P32245 whole entry): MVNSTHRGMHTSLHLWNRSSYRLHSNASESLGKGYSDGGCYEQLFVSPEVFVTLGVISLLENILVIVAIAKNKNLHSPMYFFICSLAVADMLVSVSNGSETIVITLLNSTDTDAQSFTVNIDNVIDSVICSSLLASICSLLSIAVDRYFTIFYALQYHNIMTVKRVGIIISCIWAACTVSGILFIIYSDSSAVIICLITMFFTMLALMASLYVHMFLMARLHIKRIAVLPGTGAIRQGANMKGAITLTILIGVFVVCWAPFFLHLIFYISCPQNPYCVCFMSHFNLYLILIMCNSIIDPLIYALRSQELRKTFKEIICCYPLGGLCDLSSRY

HEK293 = experiment: EBV LMP1 TES2 canonical NF-kB signalling blockers – cell-based, HEK293, luciferase, cherry-pick, dose response (AID 588343); format: functional; settings: Homo sapiens
[2] = molecular target: T1, Carboxy-terminal domain RNA polymerase II polypeptide A small phosphatase 1 (Homo sapiens, UniProt Q9GZU7); experiment: CTDSP1 inhibitors, concentration-response, biochemical, absorbance readout, ultra-high-throughput screen actives (AID 540297); format: functional
T1 sequence (Q9GZU7 whole entry): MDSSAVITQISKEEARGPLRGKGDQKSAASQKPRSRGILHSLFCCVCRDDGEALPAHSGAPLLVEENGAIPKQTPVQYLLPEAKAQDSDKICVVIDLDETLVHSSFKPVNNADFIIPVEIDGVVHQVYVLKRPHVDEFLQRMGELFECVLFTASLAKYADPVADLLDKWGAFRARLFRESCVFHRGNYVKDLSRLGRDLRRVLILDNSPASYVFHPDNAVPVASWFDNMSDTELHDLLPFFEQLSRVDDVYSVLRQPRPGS

Cytochrome P450 3A4 = Cytochrome P450 3A4 (Homo sapiens, UniProt P08684);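 also: CYP3A4 tested as one member of a cytochrome P450 panel screen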
Chain of Cytochrome P450 3A4 (P08684 whole entry): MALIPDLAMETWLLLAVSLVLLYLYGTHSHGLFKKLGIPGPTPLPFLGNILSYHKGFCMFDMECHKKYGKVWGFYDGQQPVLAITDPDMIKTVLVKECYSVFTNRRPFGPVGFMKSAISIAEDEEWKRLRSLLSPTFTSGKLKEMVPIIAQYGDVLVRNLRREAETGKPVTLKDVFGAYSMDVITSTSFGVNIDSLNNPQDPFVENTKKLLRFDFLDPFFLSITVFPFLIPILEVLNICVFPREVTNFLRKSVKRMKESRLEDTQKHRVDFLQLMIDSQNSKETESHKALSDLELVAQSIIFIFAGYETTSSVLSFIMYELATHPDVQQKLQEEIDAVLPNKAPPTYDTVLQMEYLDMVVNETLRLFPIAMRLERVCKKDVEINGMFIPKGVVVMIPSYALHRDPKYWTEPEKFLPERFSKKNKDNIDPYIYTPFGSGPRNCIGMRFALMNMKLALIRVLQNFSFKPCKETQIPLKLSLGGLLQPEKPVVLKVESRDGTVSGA

Cytochrome P450 2D6 = Cytochrome P450 2D6 (Homo sapiens, UniProt P10635);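 also: CYP2D6 member of a cytochrome P450 panel assay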
Chain of Cytochrome P450 2D6 (P10635 whole entry): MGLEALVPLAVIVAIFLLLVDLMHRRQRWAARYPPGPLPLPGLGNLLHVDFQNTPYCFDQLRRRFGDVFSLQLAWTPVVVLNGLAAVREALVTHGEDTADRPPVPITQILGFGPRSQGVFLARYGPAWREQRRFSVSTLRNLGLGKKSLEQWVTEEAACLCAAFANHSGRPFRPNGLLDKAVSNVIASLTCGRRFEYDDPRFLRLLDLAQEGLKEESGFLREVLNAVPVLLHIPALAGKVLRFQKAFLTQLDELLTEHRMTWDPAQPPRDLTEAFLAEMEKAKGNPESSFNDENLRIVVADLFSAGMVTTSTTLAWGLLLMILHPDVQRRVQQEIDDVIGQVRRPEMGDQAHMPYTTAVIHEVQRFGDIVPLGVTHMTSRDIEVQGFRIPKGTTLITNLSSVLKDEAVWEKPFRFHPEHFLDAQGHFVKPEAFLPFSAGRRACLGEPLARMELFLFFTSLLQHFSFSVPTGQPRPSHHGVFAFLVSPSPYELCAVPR

[3] = molecular target: Dual specificity tyrosine-phosphorylation-regulated kinase 1A (Rattus norvegicus, UniProt Q63470); format: biochemical, Homo sapiens
Protein RecA = molecular target: T2, Protein RecA (Mycobacterium tuberculosis, UniProt P9WHJ3); experiment: Fluorescence Cell-Free Homogeneous Dose Retest to Identify Inhibitors of RecA-Intein Splicing Activity. [Related pubchem assays (depositor defined):AID2097, AID2223, AID489010, AID492950]; format: functional
T2 sequence (P9WHJ3 whole entry): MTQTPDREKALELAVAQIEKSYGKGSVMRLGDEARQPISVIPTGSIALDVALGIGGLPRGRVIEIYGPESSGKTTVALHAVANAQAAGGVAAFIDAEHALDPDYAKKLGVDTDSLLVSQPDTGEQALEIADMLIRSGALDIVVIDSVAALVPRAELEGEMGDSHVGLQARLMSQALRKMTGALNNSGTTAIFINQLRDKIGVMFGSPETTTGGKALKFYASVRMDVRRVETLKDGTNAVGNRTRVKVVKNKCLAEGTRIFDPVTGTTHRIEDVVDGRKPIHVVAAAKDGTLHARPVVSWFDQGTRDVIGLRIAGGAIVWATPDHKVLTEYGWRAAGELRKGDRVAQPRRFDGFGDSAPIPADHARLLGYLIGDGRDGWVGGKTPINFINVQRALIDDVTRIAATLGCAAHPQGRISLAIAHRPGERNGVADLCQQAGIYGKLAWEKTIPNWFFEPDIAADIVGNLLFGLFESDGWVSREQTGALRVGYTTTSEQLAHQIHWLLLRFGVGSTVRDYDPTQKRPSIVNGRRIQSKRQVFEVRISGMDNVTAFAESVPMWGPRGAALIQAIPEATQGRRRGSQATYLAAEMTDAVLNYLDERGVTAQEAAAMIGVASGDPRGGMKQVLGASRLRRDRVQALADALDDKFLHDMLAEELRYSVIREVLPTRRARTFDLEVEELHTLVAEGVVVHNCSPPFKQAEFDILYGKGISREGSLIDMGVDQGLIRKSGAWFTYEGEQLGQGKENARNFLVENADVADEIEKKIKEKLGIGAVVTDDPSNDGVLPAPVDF

[4] = molecular target: T3, Replicative DNA helicase DnaB (Mycobacterium tuberculosis, UniProt P9WMR3); experiment: DnaB intein splicing inhibitors, dose response, biochemical, cell-free fluorescence (AID 449749); format: functional
T3 sequence (P9WMR3 whole entry): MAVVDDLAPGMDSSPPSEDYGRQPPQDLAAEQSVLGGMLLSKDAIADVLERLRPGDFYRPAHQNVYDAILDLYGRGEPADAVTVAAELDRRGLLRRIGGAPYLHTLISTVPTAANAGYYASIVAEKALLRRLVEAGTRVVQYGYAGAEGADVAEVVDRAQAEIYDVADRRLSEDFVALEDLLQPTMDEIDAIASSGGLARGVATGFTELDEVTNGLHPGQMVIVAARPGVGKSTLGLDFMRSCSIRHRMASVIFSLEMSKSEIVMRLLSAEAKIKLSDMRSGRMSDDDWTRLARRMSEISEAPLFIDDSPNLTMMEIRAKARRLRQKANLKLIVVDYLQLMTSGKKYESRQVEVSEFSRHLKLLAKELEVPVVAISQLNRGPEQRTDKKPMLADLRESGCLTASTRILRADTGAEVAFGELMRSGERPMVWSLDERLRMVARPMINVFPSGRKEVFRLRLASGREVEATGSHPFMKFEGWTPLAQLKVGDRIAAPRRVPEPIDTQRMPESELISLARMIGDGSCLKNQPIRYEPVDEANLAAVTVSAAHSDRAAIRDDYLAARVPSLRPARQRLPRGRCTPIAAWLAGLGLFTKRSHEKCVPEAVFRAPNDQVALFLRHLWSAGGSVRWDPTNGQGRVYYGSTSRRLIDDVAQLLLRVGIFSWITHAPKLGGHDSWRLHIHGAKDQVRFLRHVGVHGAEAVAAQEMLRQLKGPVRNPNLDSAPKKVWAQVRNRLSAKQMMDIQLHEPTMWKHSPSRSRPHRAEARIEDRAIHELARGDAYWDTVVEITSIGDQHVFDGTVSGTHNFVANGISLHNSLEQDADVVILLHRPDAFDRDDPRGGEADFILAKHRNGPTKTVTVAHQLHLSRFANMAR

Escherichia coli = experiment: microbe, parasite or virus in culture
[5] = molecular target: T4, Endoribonuclease toxin MazF (Escherichia coli K-12, UniProt P0AE70); experiment: activation of MazEF endoribonuclease cleavage – biochemical, fluorescence, single-stranded RNA substrate, uHTS hits, dose response (AID 588481); format: functional
T4 sequence (P0AE70 whole entry): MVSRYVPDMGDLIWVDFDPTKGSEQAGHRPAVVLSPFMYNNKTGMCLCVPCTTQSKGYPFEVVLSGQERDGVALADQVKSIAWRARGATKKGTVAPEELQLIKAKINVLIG

[6] = molecular target: T4, Endoribonuclease toxin MazF; experiment: substrate-only fluorescence increase artefacts – biochemical, single-stranded RNase substrate, counter-screen for MazEF activator project, dose response (AID 588502); format: functional
[7] = molecular target: T5, Heat shock factor protein 1 (Mus musculus, UniProt P38532); experiment: decrease of HSF1-responsive luciferase luminescence – cell-based, NIH3T3, dose retest, confirmation (AID 2382); format: functional;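 also: NIH3T3 fibroblasts with HSF1-driven luciferase reporter stressed by proteasome inhibitor MG132; luminescence from HSF1-driven luciferase expression after 8 hours of MG132 stress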
T5 sequence (P38532 whole entry): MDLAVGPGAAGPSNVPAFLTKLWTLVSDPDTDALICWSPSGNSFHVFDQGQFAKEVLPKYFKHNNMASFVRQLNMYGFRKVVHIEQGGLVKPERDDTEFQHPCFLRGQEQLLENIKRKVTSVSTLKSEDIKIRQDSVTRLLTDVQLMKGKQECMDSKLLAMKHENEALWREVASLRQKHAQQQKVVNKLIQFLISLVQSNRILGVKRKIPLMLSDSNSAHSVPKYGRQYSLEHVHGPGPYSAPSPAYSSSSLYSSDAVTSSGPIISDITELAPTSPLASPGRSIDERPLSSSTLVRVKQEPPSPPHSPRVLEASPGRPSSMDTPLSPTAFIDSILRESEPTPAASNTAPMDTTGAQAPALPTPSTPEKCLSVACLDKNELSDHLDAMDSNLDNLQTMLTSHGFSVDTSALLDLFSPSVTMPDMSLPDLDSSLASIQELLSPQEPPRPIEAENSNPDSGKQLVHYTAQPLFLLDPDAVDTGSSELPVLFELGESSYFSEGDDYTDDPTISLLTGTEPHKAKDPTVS

[8] = molecular target: T6, Short transient receptor potential channel 4 (Mus musculus, UniProt Q9QUQ5); experiment: block of DAMGO-driven TRPC4 calcium entry – cell-based, HEK293 TRPC4/mu-opioid, Fluo-4 calcium, dose response (AID 434942); format: functional;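 also: potency of inhibitors blocking the TRPC4 calcium response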
T6 sequence (Q9QUQ5 whole entry): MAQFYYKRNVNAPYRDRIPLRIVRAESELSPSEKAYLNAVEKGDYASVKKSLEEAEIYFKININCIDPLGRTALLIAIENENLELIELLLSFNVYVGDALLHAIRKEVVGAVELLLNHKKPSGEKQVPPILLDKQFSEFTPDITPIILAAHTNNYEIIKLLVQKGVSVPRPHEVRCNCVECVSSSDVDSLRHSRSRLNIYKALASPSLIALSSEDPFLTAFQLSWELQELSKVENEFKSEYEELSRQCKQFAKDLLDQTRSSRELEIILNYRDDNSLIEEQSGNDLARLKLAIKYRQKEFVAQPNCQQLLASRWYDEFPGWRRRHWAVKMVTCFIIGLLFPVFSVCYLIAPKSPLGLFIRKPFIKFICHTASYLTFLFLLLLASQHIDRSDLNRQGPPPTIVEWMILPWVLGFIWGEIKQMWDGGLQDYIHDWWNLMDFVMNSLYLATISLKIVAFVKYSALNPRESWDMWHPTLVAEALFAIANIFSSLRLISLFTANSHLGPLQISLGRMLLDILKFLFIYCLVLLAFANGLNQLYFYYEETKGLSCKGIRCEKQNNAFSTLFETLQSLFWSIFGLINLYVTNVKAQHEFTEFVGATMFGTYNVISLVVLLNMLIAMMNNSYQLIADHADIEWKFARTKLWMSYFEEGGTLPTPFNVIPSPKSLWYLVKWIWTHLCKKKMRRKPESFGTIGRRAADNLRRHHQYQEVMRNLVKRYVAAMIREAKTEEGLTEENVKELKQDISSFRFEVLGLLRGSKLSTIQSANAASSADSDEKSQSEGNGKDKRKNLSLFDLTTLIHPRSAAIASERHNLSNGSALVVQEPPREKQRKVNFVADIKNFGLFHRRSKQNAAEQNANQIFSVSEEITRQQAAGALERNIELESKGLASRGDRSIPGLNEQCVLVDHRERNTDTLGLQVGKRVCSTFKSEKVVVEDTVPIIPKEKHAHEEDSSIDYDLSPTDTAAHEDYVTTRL

P388/ADR = experiment: cells; format: functional; settings: Mus musculus
P388 = experiment: cells; format: functional; settings: Mus musculus
SN12K1 = experiment: cells; format: functional; settings: Homo sapiens
[9] = molecular target: DNA dC->dU-editing enzyme APOBEC-3A (Homo sapiens, UniProt P31941); experiment: A3A deaminase inhibition for selectivity – biochemical, dose response (AID 504722); format: functional
Chain of DNA dC->dU-editing enzyme APOBEC-3A (P31941 whole entry): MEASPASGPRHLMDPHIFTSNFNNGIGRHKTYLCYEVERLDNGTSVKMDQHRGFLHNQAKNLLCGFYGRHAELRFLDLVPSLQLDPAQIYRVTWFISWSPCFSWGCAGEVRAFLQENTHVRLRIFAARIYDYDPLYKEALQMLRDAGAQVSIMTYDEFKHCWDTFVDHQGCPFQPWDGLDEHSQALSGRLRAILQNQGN

[10] = molecular target: DNA dC->dU-editing enzyme APOBEC-3G (Homo sapiens, UniProt Q9HC16); experiment: Dose Response confirmation of small molecule APOBEC3G DNA Deaminase Inhibitors via a fluorescence-based single-stranded DNA deaminase assay. [Related pubchem assays (depositor defined):AID493012, AID493028]; format: functional
Chain of DNA dC->dU-editing enzyme APOBEC-3G (Q9HC16 whole entry): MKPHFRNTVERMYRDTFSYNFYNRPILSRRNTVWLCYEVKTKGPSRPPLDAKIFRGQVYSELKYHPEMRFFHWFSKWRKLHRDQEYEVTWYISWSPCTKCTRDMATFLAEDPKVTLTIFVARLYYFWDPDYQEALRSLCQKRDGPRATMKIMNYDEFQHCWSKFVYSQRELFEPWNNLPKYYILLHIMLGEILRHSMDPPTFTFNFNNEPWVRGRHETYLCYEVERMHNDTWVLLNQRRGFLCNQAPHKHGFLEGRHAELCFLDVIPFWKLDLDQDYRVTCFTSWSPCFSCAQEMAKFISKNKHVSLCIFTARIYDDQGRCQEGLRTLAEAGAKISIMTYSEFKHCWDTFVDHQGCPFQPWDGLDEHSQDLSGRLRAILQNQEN

SMILES: COc1ccc(-c2sc3ccc(N4CCOCC4)cc3c2C#CC2(O)CCCCC2)cc1
- AC50 [1]: 0.749 µM (active)
- EC50 (Melanocortin receptor 4): > 89.2 µM (inactive)

SMILES: O=C(C=C1SCCS1)/C=C/c1ccco1
- AC50 (HEK293): 10.8 µM (active)
- IC50 [2]: 7.85 µM (active)
- AC50 (Cytochrome P450 3A4): 15.8 µM (inconclusive)
- AC50 (Cytochrome P450 2D6): 17.8 µM (inconclusive)

SMILES: O=C(NCc1ccco1)c1sc2ccccc2c1Cl
- AC50 [3]: 7.39 µM (active)

SMILES: CC(=O)c1ccc(-c2cccc(-c3nc4ccccn4c3NC3CCCCC3)c2)cc1
- EC50 (Protein RecA): 0.178 µM (active)
- AC50 [4]: 0.377 µM (active)
- AC50 (Escherichia coli): 299 µM (active)

SMILES: O=c1oc(/C=C/c2ccco2)nc2sc3c(c12)CCC3
- EC50 [5]: > 99 µM (inactive)
- EC50 [6]: > 99 µM (inactive)

SMILES: CCOC(=O)CSc1cc(CS(C)(=O)=O)nc(-c2ccccn2)n1
- EC50 [7]: > 195 µM (not active)
- AC50 (Escherichia coli): 56.8 µM (active)

SMILES: COc1ccc(O)c(-c2cc(-c3cccs3)[nH]n2)c1
- AC50 [3]: 10.6 µM (active)

SMILES: CC1CC(=O)N(c2ccc(NCc3ccc(Cl)cc3)c([N+](=O)[O-])c2)C1=O (centres undefined)
- EC50 [5]: 96.1 µM (inactive)
- EC50 [6]: > 99 µM (inactive)

SMILES: Cc1cc(Nc2ccccc2)nc2cc(O)ccc12
- AC50 [3]: 4.44 µM (active)
- EC50 [8]: 3.76 µM (active)

SMILES: CCN1CCN(Cc2ccc(NC(=O)c3ccc(C)c(NC(=O)c4nccn4C)c3)cc2C(F)(F)F)CC1
- AC50 (HEK293): 1.56 µM (active)

SMILES: COC(=O)CSc1ncnc2c1sc1nc3c(cc12)COC(C)(C)C3
- AC50 (HEK293): 4.32 µM (active)

SMILES: O=C1C(Cl)=C(NCCc2ccccc2)C(=O)N1CCc1ccccc1
- EC50 [5]: > 99 µM (inactive)
- EC50 [6]: > 99 µM (inactive)

SMILES: CC(=O)Nc1cc(-c2cccc(C(=O)N(C)C)c2)cn2c(-c3ccc(F)c(Cl)c3)cnc12
- EC50 (Melanocortin receptor 4): > 89.2 µM (inactive)

SMILES: O=C1C(O)=C(CC=C(Cl)Cl)C(=O)c2ccccc21
- AC50 [3]: 4.87 µM (active)
- GI50 (P388/ADR): 1.6 µM (inactive)
- GI50 (P388): 1.8 µM (inactive)
- GI50 (SN12K1): 1.11 µM (active)

SMILES: COc1cccc(-c2cnc3c(NC(C)=O)cc(-c4ccc(C(=O)N5CCOCC5)cc4)cn23)c1
- EC50 (Melanocortin receptor 4): > 89.2 µM (inactive)

SMILES: Cc1nn(-c2ccccc2)c(O)c1/C=N/c1ccc2[nH]c(O)nc2c1
- EC50 [5]: > 99 µM (inactive)
- EC50 [6]: > 99 µM (inactive)

SMILES: Sc1nnc(C2CCCCC2)n1/N=C/c1ccncc1
- AC50 (HEK293): 11.5 µM (active)
- IC50 [9]: > 100 µM (inactive)
- IC50 [10]: 7.27 µM (active)
